# What was measured:
# [1] = biological target: T1, purified human Factor XIa (Homo sapiens, UniProt P03951); experiment: Factor XIa Assay; format: biochemical; settings: purified human Factor XIa 40 pM; substrate Z-Gly-Pro-Arg-AFC 100 μM; 50 mM HEPES pH 7.4; read-out: Hu FXIa Ki
# T1 construct: purified human Factor XIa; purchased Sekisui Diagnostics
# How it was run: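 Purified human FXIa at 40 pM, in 50 mM HEPES pH 7.4 with 150 mM NaCl, 5 mM CaCl2 and 0.1% PEG 8000, was preequilibrated with inhibitor. Initial hydrolysis rates of Z-Gly-Pro-Arg-AFC were then measured at room temperature or 37 °C. Ki was derived from Vo/Vi = 1 + [I]/Ki, assuming competitive inhibition.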
# [2] = biological target: T2, purified Human plasma kallikrein (Homo sapiens, UniProt P03952); experiment: Kallikrein Assay; format: biochemical; settings: purified Human plasma kallikrein 0.5 nM; substrate Acetyl-K-P-R-AFC; 50 mM HEPES pH 7.4; Ki from IC50 by Cheng Prusoff equation; read-out: Hu P. Kallikrein
# T2 construct: yields a heavy chain (371 amino acids) and a light chain (248 amino acids); purchased Enzyme Research Laboratories
# Description: The effectiveness of a compound of the present invention as an inhibitor of Kallikrein can be determined using a relevant purified serine protease, and an appropriate synthetic substrate. The rate of hydrolysis of the chromogenic or fluorogenic substrate by the relevant serine protease was measured both in the absence and presence of compounds of the present invention. Assays were conducted at room temperature or at 37° C. […] A decrease in the rate of fluorescence change in the presence of inhibitor is indicative of enzyme inhibition. Such methods are known to one skilled in the art. The results of this assay are expressed as the inhibitory constant, Ki. Kallikrein determinations were made in 50 mM HEPES buffer at pH 7.4 containing 150 mM NaCl, 5 mM CaCl2, and 0.1% PEG 8000 (polyethylene glycol; Fisher Scientific). Determinations were made using purified Human plasma kallikrein at a final concentration of 0.5 nM (Enzyme Research Laboratories) and the synthetic substrate, Acetyl-K—P-R-AFC (Sigma # C6608) at a concentration of […]. Activity assays were performed by diluting a stock solution of substrate at least tenfold to a final concentration ≤0.2 Km into a solution containing enzyme or enzyme equilibrated with inhibitor. Times required to achieve equilibration between enzyme and inhibitor were determined in control experiments. The reactions were performed under linear progress curve conditions and fluorescence increase measured at 405 Ex/510 Em nm. Values were converted to percent inhibition of the control reaction (after subtracting 100% Inhibition value). IC50 was determined by inflection point from a four parameter logistic curve fit. Ki was calculated using the Cheng Prusoff equation, Ki=IC50/(1+([S]/Km)). The activities shown by this assay indicate that the compounds of the invention may be therapeutically useful for treating or preventing various cardiovascular and/or cerebrovascular thromboembolic conditions in patients suffering from unstable angina, acute coronary syndrome, refractory angina, myocardial infarction, transient ischemic attacks, atrial fibrillation, stroke such as thrombotic stroke or embolic stroke, venous thrombosis, coronary and cerebral arterial thrombosis, cerebral and pulmonary embolism, atherosclerosis, deep vein thrombosis, disseminated intravascular coagulation, and reocclusion or restenosis of recanalized vessels.
# T1 sequence (P03951 388-625 limits assumed): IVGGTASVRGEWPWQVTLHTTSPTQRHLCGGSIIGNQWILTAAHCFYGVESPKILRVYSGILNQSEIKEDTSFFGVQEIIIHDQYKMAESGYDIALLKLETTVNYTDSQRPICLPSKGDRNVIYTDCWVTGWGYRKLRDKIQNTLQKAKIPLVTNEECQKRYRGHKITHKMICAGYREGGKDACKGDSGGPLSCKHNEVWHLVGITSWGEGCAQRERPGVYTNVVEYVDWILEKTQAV
# T1 sequence (P03951 19-387 partner limits assumed): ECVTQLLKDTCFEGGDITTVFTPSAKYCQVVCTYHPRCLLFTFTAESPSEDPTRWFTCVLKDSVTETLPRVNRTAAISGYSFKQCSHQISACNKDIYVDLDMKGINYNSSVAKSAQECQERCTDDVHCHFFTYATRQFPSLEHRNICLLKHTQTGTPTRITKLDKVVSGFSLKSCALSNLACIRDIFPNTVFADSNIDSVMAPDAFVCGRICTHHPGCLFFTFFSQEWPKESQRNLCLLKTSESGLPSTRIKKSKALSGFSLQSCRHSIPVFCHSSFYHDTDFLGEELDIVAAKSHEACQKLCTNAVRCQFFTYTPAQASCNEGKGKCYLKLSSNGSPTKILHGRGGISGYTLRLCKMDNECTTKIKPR
# T2 sequence (P03952 391-638 limits assumed): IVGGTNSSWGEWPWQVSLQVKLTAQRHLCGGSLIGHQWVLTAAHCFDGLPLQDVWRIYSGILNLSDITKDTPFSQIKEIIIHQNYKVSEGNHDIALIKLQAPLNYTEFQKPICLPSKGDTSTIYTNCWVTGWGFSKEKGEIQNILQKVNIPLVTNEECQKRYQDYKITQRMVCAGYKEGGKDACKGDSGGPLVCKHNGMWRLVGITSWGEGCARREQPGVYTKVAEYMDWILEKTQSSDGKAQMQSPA
# T2 sequence (P03952 20-390 partner limits assumed): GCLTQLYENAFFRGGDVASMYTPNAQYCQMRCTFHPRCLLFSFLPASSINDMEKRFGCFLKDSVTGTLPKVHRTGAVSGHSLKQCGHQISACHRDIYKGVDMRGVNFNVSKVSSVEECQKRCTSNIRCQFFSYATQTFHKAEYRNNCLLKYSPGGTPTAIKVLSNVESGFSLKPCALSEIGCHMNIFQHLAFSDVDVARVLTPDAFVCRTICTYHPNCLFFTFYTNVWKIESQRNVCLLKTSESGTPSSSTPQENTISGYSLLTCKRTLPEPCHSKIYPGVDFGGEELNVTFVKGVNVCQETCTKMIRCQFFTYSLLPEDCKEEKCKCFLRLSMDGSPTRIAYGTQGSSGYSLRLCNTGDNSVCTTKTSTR
Ki [1] [nM],Ki [2] [nM],Structure (SMILES)
0.67,0.96,"COC(=O)Nc1ccc2c(c1)NC(=O)[C@H](C)CCCC(C(=O)N1CCC[C@@]3(C1)OC(=O)Nc1ccc(Cl)c(F)c13)c1nc-2c(Cl)[nH]1 (stereo partly drawn) [Example 10, methyl ((5R,Z)-1^5-chloro-9-((R)-6-chloro-5-fluoro-2-oxo-1,2-dihydrospiro[benzo[d][1,3]oxazine-4,3′-piperidine]-1′-carbonyl)-5-methyl-4-oxo-1^1H-3-aza-1(4,2)-imidazola-2(1,2)-benzenacyclononaphane-2^4-yl)carbamate]"
0.6,1.11,"COC(=O)Nc1ccc2c(c1)NC(=O)CCCC[C@@H](C(=O)N1CC[C@@]3(C1)OC(=O)Nc1ccc(Cl)c(F)c13)c1nc-2c(C)[nH]1 [Example 13b, methyl ((R,Z)-9-((R)-6-chloro-5-fluoro-2-oxo-1,2-dihydrospiro[benzo[d][1,3]oxazine-4,3′-pyrrolidine]-1′-carbonyl)-1^5-methyl-4-oxo-1^1H-3-aza-1(4,2)-imidazola-2(1,2)-benzenacyclononaphane-2^4-yl)carbamate]"
13.4,5.5,"COC(=O)Nc1ccc2c(c1)NC(=O)[C@H](C)CCC[C@@H](C(=O)N1CCC[C@@]3(C1)OC(=O)Nc1ccc(Cl)c(F)c13)C1=NC=C2O1 [Example 14a, methyl ((5R,9R)-9-((R)-6-chloro-5-fluoro-2-oxo-1,2-dihydrospiro[benzo[d][1,3]oxazine-4,3′-piperidine]-1′-carbonyl)-5-methyl-4-oxo-3-aza-1(5,2)-oxazola-2(1,2)-benzenacyclononaphane-2^4-yl)carbamate]"
9.2,3.8,"COC(=O)Nc1ccc2c(c1)NC(=O)CCCC[C@@H](C(=O)N1CC[C@@]3(C1)OC(=O)Nc1ccc(Cl)cc13)c1cc-2ccn1 [Example 17a, methyl ((R)-9-((R)-6-chloro-2-oxo-1,2-dihydrospiro[benzo[d][1,3]oxazine-4,3′-pyrrolidine]-1′-carbonyl)-4-oxo-3-aza-1(4,2)-pyridina-2(1,2)-benzenacyclononaphane-2^4-yl)carbamate]"
8.6,3.65,"COC(=O)Nc1ccc2c(c1)NC(=O)CCCCC[C@@H](C(=O)N1CC[C@@]3(C1)OC(=O)Nc1ccc(Cl)c(F)c13)c1cc-2ccn1 [Example 18a, methyl ((R)-10-((R)-6-chloro-5-fluoro-2-oxo-1,2-dihydrospiro[benzo[d][1,3]oxazine-4,3′-pyrrolidine]-1′-carbonyl)-4-oxo-3-aza-1(4,2)-pyridina-2(1,2)-benzenacyclodecaphane-2^4-yl)carbamate]"
59.4,17,"COC(=O)Nc1ccc2c(c1)NC(=O)CC/C=C/C[C@@H](C(=O)N1CCC[C@@]3(C1)OC(=O)Nc1ccc(Cl)c(F)c13)c1cc-2ccn1 [Example 21a, methyl ((R,E)-10-((R)-6-chloro-5-fluoro-2-oxo-1,2-dihydrospiro[benzo[d][1,3]oxazine-4,3′-piperidine]-1′-carbonyl)-4-oxo-3-aza-1(4,2)-pyridina-2(1,2)-benzenacyclodecaphanen-2^4-yl)carbamate]"
2.88,0.77,"COC(=O)Nc1ccc2c(c1)NC(=O)CC/C=C\C[C@@H](C(=O)N1CCC[C@@]3(C1)OC(=O)Nc1ccc(Cl)c(F)c13)c1cc-2ccn1 [Example 22a, methyl ((R,Z)-10-((R)-6-chloro-5-fluoro-2-oxo-1,2-dihydrospiro[benzo[d][1,3]oxazine-4,3′-piperidine]-1′-carbonyl)-4-oxo-3-aza-1(4,2)-pyridina-2(1,2)-benzenacyclodecaphanen-2^4-yl)carbamate]"
1.3,0.75,"COC(=O)Nc1ccc2c(c1)NC(=O)CCCC[C@@H](C(=O)N1CC[C@@]3(C1)OC(=O)Nc1ccc(Cl)c(F)c13)c1ccnc-2c1 [Example 25a, methyl ((R)-9-((R)-6-chloro-5-fluoro-2-oxo-1,2-dihydrospiro[benzo[d][1,3]oxazine-4,3′-pyrrolidine]-1′-carbonyl)-4-oxo-3-aza-1(2,4)-pyridina-2(1,2)-benzenacyclononaphane-2^4-yl)carbamate]"
45.2,12.7,"COC(=O)Nc1ccc2c(c1)NC(=O)CCCCC(C(=O)N1CC[C@@]3(C1)OC(=O)Nc1ccc(Cl)cc13)c1cc(F)cc-2c1 (stereo partly drawn) [Example 28, methyl (9-((R)-6-chloro-2-oxo-1,2-dihydrospiro[benzo[d][1,3]oxazine-4,3′-pyrrolidine]-1′-carbonyl)-1^5-fluoro-4-oxo-3-aza-1(1,3),2(1,2)-dibenzenacyclononaphane-2^4-yl)carbamate]"
68.8,1.52,"COC(=O)Nc1ccc2c(c1)NC(=O)CCCC[C@@H](C(=O)N1CCC[C@@]3(C1)OC(=O)Nc1ccc(Cl)c(F)c13)c1cc(F)cc-2c1 [Example 30b, methyl ((R)-9-((R)-6-chloro-5-fluoro-2-oxo-1,2-dihydrospiro[benzo[d][1,3]oxazine-4,3′-piperidine]-1′-carbonyl)-1^5-fluoro-4-oxo-3-aza-1(1,3),2(1,2)-dibenzenacyclononaphane-2^4-yl)carbamate]"
41.1,63.7,"CCOC(=O)C1C/C=C/CC(C(=O)N2CCC[C@@]3(C2)OC(=O)Nc2ccc(Cl)c(F)c23)c2nc(c[nH]2)-c2ccc(NC(=O)OC)cc2N1 (stereo partly drawn) [Example 31, ethyl (1^2Z,6E)-9-((R)-6-chloro-5-fluoro-2-oxo-1,2-dihydrospiro[benzo[d][1,3]oxazine-4,3′-piperidine]-1′-carbonyl)-2^4-((methoxycarbonyl)amino)-1^1H-3-aza-1(4,2)-imidazola-2(1,2)-benzenacyclononaphan-6-ene-4-carboxylate]"
16.1,4.5,"COC(=O)Nc1ccc2c(c1)NC(=O)CCCC[C@H](NC(=O)N1CC[C@@]3(C1)OC(=O)Nc1ccc(Cl)cc13)c1nc-2c[nH]1 [Example 38, methyl ((S,Z)-9-((R)-6-chloro-2-oxo-1,2-dihydrospiro[benzo[d][1,3]oxazine-4,3′-pyrrolidine]-1′-carboxamido)-4-oxo-11H-3-aza-1(4,2)-imidazola-2(1,2)-benzenacyclononaphane-2^4-yl)carbamate]"

# Source: patent publication US10344039B2, “Macrocyclic spirocarbamate derivatives as factor XIa inhibitors, pharmaceutically acceptable compositions and their use” (MERCK SHARP & DOHME CORP., priority 2015, dated 2019)
